Measured values: PubChem BioAssay (NCI)
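48-hour exposure; five concentrations; linearly interpolated endpoints. TGI marks complete inhibition of growth.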

What was measured:
Experiment in all cases: NCI-60 cell line screen, 48 h
BT-549 breast = system: BT-549 breast
SF-295 CNS = system: SF-295 CNS
HOP-92 NSCLC = system: HOP-92 NSCLC
ACHN renal = system: ACHN renal
SW-620 colon = system: SW-620 colon
SNB-75 CNS = system: SNB-75 CNS
SR leukemia = system: SR leukemia
A498 renal = system: A498 renal
OVCAR-8 ovarian = system: OVCAR-8 ovarian
UO-31 renal = system: UO-31 renal
NCI/ADR-RES ovarian = system: NCI/ADR-RES ovarian
SNB-19 CNS = system: SNB-19 CNS
M14 melanoma = system: M14 melanoma
NCI-H23 lung = system: NCI-H23 lung
T-47D breast = system: T-47D breast
SF-539 CNS = system: SF-539 CNS
NCI-H226 lung = system: NCI-H226 lung
MDA-N = system: MDA-N

SMILES	TGI (BT-549 breast) [µM]	TGI (SF-295 CNS) [µM]	TGI (HOP-92 NSCLC) [µM]	TGI (ACHN renal) [µM]	TGI (SW-620 colon) [µM]	TGI (SNB-75 CNS) [µM]	TGI (SR leukemia) [µM]	TGI (A498 renal) [µM]	TGI (OVCAR-8 ovarian) [µM]	TGI (UO-31 renal) [µM]	TGI (NCI/ADR-RES ovarian) [µM]	TGI (SNB-19 CNS) [µM]	TGI (M14 melanoma) [µM]	TGI (NCI-H23 lung) [µM]	TGI (T-47D breast) [µM]	TGI (SF-539 CNS) [µM]	TGI (NCI-H226 lung) [µM]	TGI (MDA-N) [µM]
CCN(CC)CC(=O)Nc1c(C(N)=O)nnn1Cc1cc(Cl)c(C(=O)c2ccc(Cl)cc2)c(Cl)c1	34.6	32.9	53.2	> 100	40.4	59	68.9	> 100	34.7	31.2	34.7	> 100	30.9	37.4	61.9	31.4	30.4	
CC(=O)Oc1ccc2c(c1)Oc1cc(C(C)=O)ccc1C21OC(=O)c2ccccc21 (configuration not stated)	> 100	> 100	> 100	> 100	> 100	> 100		> 100	> 100	> 100	> 100	> 100	> 100	> 100	> 100			> 100
COc1cc(/C=C2\C[C@H]3[C@@H]4CC=C5C[C@@H](O)CC[C@]5(C)[C@H]4CC[C@]3(C)[C@H]2O)cc(OC)c1OC	56.8	22.4	65.8	> 100	> 100	75.4		80.6	> 100	36.8	> 100	> 100	61.7	58.2	72.6	> 100	> 100	> 100
O=C(/C=C(\O)c1ccc(Cl)cc1)C(=O)N=Nc1c(O)[nH]c2ccc(Br)cc12	> 100	> 100	> 100	> 100	> 100	> 100		74.3	> 100	> 100	> 100	> 100	> 100	> 100	> 100	> 100	> 100	> 100
COC(=O)/C=C/c1ccc2c(c1)CCC2		> 100	46.7	> 100	> 100	91.4	72.9	> 100	> 100	> 100	> 100	> 100	> 100	> 100	> 100	> 100		> 100
C=C1C(=O)O[C@@H]2[C@H]1C[C@@H](O)[C@H](C)[C@@](O)(C(=O)/C=C/C)[C@H]2OC(=O)C(C)CC (some centres not stated)	13.3	> 100	9.83	9.89	6.65	51.6		37.7	6.4	4.06	> 67.2	> 68.8	9.03	18.2	71.8	15.8	> 100	10.3
C=CC(Cl)(CBr)CCC(Br)=C(C)C (configuration not stated)	44.4	> 100	35.2	49.7	29.2	91.4	> 100	> 100	64.6	37.4	91.2	> 100	> 100	68.5		44	> 100	40.8
O=C(O)CN1CCNCCN(CP(=O)(O)O)CC1	> 100	> 100	> 100	> 100	> 100	> 100	> 100	99.1	> 22.9	> 100		> 100	> 100	> 100	> 100	> 100	> 100	> 100
Cc1ccc([N+](=O)[O-])c2c(NCCNC(=O)Cn3ccnc3[N+](=O)[O-])ccnc12		43.3	78.1	> 100	> 100	> 100	> 100	> 100	> 100	> 100	> 100	> 100	> 100	> 100	> 100	> 100	88	> 100
Cc1ccc(S(=O)(=O)N2CC3OC(C)(C)OC3C2CO)cc1 (configuration not stated)		> 100	> 100	> 100	> 100	> 100	> 100	> 100	> 100		> 100		> 100		> 100	> 100	> 100	> 100
COc1ccc(CN2C[C@H]3[C@@H](CC(=O)O[C@H]3C)CC2=O)cc1	> 100	> 100	> 100	> 100	> 100	> 100	> 100	> 100	> 100	> 100	> 100	> 100	> 100	> 100				> 100
CC(=O)OC1CCN(C(=O)c2ccccc2)CC1CC1(c2cc3ccccc3[nH]2)OCCO1 (configuration not stated)		> 100	> 100	> 100	> 100	> 100		96.2	> 100	> 100	> 100	> 100	> 100	> 100	> 100		> 100	> 100
Cc1nc(C)c(C(=O)NNC(=O)Cc2ccccc2)cc1C(=O)NNC(=O)Cc1ccccc1	> 100	> 100	> 100	> 100	> 100	> 100		> 100	> 100	> 100	> 100	> 100	> 100	> 100	> 100	> 100	> 100	> 100
O=c1cc(-c2ccccc2)[nH]c2cc(F)c(F)cc12		> 100	> 100	> 35.5	> 100	90	> 100	> 62.8	> 100	> 100	> 19.6	> 50.6	> 100	22.9		2.33	> 26.4	1.17
